Molecular target: T1, PME-1 (PP2A-specific methylesterase) (Homo sapiens, UniProt Q9Y570)
T1 sequence (Q9Y570 2-386): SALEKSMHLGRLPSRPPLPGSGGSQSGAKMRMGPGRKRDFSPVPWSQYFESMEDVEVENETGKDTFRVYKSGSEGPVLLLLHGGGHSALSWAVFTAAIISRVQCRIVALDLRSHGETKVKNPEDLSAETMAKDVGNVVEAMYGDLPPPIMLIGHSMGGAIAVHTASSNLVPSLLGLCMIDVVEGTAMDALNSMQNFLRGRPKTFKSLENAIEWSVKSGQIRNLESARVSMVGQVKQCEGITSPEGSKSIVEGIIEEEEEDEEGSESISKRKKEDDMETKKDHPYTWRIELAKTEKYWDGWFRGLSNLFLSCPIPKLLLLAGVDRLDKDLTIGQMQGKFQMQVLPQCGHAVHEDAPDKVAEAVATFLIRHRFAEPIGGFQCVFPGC
Assay type: biochemical

IC50: 3.9 µM
Compound: CCCCCCCCCCCCCCCCCCCC(=O)NCCc1c[nH]c2ccc(O)cc12 [EHT, eicosinoyl-5-hydroxytryptamide]

Reference: publication PMC5038983 (The Journal of neuroscience : the official journal of the …, 2011)
